The values below come from patent US12102617B2, “Antimicrobial compositions containing a synergistic combination of activated creatinine and an imidazole antifungal agent” (Board of Regents of the University of Nebraska, priority 2016, dated 2024).

In brackets after ≈: the same amount, converted by molar mass. Structures can show the parent of a compound that is named as a salt. Where two headings read alike, the source gives them in different places.

Assay [1] concerns gram negative and gram positive bacteria. The following applies: both gram negative and gram positive bacteria, including antibiotic resistant organisms; cited from earlier work.
Assay [2] has as its system Candida albicans yeast (ATCC1023). Description: Antifungal MIC evaluation (Example 3). Format: cell-based. The following applies: C. albicans yeast, single agent alone, 24 hours at 37° C. How it is done:
(§1) The MIC for each solution was determined against the fungi after incubation for 24 hours at 37° C. using two-fold dilutions and flat-bottom 96-well plates.

Assay [3] concerns Saccharomyces spp. yeast (baker's yeast). Nature of the assay: Antifungal MIC evaluation (Example 3). Format: cell-based. The conditions noted are these: single agent alone, 24 hours at 37° C. The protocol:
as §1

Assay [4] concerns E. coli (Gram negative; laboratory strain 35150). Nature of the assay: microbe, parasite or virus in culture. Format: cell-based. The conditions noted are these: single agent alone, 24 hours at 37° C. The protocol: (§2) The antibacterial activity of the clotrimazole/activated creatinine solutions prepared as described in Example 1 was evaluated with respect to Staphylococcus aureus (Gram positive; laboratory strain 29213), E. coli (Gram negative; laboratory strain 35150), and a multiple drug resistant strain of Enterococcus faecalis (Gram positive). The S. aureus and E. coli were purchased from the American Type Culture Collection, and the E. faecalis was a local veterinary clinic isolate. The minimum inhibitory concentration (“MIC”) for each solution was determined against each of the three bacteria after incubation for 24 hours at 37° C. using two-fold dilutions and flat-bottom 96-well plates.

For assay [5], the system named is Staphylococcus aureus (Gram positive; laboratory strain 29213). Nature of the assay: MIC determination, two-fold dilutions in 96-well plates (Example 2). Format: cell-based. The following applies: for antibacterial efficacy against S. aureas (Example 2, FIG. 2): comparative photographs; for MIC: S. aureus, single agent alone, 24 hours at 37° C. How it is done:
as §2

Assay [6] deals with multiple drug resistant strain of Enterococcus faecalis (Gram positive). The description is as above. Format: cell-based. The conditions noted are these: E. faecalis (multiple drug resistant), single agent alone, 24 hours at 37° C. The protocol:
as §2

In a further assay the test system is Penicillium spp. 1. Description: Comparative antifungal testing on LB agar plate wells, mold fungi (Example 4). Format: cell-based. The following applies: 0.1% (w/v) solutions in wells of LB agar plate, after 48 hours. The protocol: (§3) Two species of penicillium, Penicillium spp. 1 and Penicillium spp. 2, were isolated from contaminates that grew on laboratory plates and were grown in LB broth, shaking for three days. One hundred microliters of the fungal broth were added to an LB agar plate and evenly spread on the surface. Test samples containing the following aqueous solutions were prepared: • 0.1% (w/v) clotrimazole (3.4 mM); • 0.1% (w/v) clotrimazole in 200 mM creatinine ethyl ester hydrochloride (“CEE”) (3.4 mM in clotrimazole; 1.7 mol % clotrimazole in the clotrimazole-creatinine mixture); • 0.1% (w/v) ketoconazole (5.3 mM); • 0.1% (w/v) fluconazole (30 mM). […] (2009) Biochem. Biophys. Res. Comm. 388(2):252-255.

In a further assay the test system is Penicillium spp. 2. Described as above. Format: cell-based. The following applies: 0.1% (w/v) solutions in wells of LB agar plate, after 48 hours. How it is done: as §3

As for `CN1CC(=O)N=C1N` [activated creatinine, creatinine hydrochloride], the “inhibitory activity against bacteria” value in assay [1] is reported as “broad spectrum inhibitory activity”. Also, the MIC entry is “no impact on fungal growth” in assay [2]; “no impact on fungal growth” in assay [3]; 21.9 mg/mL in assay [4] (Escherichia coli, read-out: MIC); 10.9 mg/mL in assay [5] (Staphylococcus aureus, read-out: MIC); 21.8 mg/mL in assay [6] (Enterococcus faecalis, read-out: MIC). Also, the “antibacterial efficacy against S. aureas (Example 2, FIG. 2)” value in assay [5] is recorded as “ineffective”.
For `Clc1ccccc1C(c1ccccc1)(c1ccccc1)n1ccnc1` [Clotrimazole, clotrimazole], the “inhibition of fungal growth” value in the assay with Penicillium spp. 1 is given as “does not exhibit antifungal activity”; with Penicillium spp. 1 (listed as CLO) it was “do not”; in the assay on Penicillium spp. 2, “does not exhibit antifungal activity”; in the assay on Penicillium spp. 2 (listed as CLO), “do not”. Also, the MIC in assay [2] (Candida albicans, ATCC1023, read-out: MIC) was 6 mg/mL (≈ 17.4 mM); in assay [3] (read-out: MIC), 7.5 mg/mL (≈ 21.7 mM); in assay [4], “no impact on bacterial growth”; in assay [5] it was “no impact on bacterial growth”; in assay [6], “no impact on bacterial growth”. Further, the “antibacterial efficacy against S. aureas (Example 2, FIG. 2)” value in assay [5] is given as “ineffective”.
In the case of `CC(=O)N1CCN(c2ccc(OCC3COC(Cn4ccnc4)(c4ccc(Cl)cc4Cl)O3)cc2)CC1` (stereo not drawn) [ketoconazole], the “inhibition of fungal growth” value in the assay with Penicillium spp. 1 and in the assay on Penicillium spp. 2 was “do not” throughout.
In the case of `OC(Cn1cncn1)(Cn1cncn1)c1ccc(F)cc1F` [fluconazole], the “inhibition of fungal growth” value with Penicillium spp. 1 and with Penicillium spp. 2 was “do not” in each case.
